Measured values: US7671068B2, “N-(alkoxyalkyl) carbamoyl-substituted 6-phenyl-benzonaphthyridine derivatives and their use as PDE ¾ inhibitors” (NYCOMED GmbH, priority 2004, dated 2010)

Tests used:
Assay type in all cases: biochemical
PDE4B2 = target: T1, PDE4B2 (Homo sapiens, UniProt Q07343); experiment: PDE4B2 inhibition, Method B (modified SPA test, recombinant enzyme); settings: 0.5 μM cAMP, read-out: PDE4 [−log IC50, mol/l] (converted)
T1 construct: made in house; host or cells: baculovirus, SF21 insect cells (virus made in SF9); 1000xg supernatant of the homogenate
T1 sequence (Q07343 1-564 isoform Q07343-2): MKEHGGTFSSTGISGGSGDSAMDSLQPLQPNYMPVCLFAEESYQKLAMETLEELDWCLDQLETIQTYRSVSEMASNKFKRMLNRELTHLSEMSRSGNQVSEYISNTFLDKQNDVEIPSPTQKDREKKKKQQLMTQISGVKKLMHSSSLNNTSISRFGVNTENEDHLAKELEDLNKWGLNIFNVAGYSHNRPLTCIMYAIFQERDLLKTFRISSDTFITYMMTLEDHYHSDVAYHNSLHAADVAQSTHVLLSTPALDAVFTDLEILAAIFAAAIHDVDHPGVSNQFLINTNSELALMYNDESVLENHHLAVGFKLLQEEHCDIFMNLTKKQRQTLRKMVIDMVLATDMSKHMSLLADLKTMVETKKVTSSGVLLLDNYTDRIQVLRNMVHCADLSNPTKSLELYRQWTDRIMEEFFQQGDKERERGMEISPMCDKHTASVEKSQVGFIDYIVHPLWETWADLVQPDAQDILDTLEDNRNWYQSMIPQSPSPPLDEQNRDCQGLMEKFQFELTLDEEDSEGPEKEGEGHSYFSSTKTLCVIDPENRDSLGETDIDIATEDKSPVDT
Experimental: The PDE4B2 (GB no. M97515) was a gift of Prof. M. Conti (Stanford University, USA). It was amplified from the original plasmid (pCMV5) via PCR with primers Rb9 (5′-[…]-3′) and Rb10 (5′-[…]-3′) and cloned into the pCR-Bac vector (Invitrogen, Groningen, NL).
(§1) The recombinant baculovirus was prepared by means of homologous recombination in SF9 insect cells. The expression plasmids were cotransfected with Bac-N-Blue (Invitrogen, Groningen, NL) or Baculo-Gold DNA (Pharmingen, Hamburg) using a standard protocol (Pharmingen, Hamburg). Wt virus-free recombinant virus supernatants were selected using plaque assay methods. After that, high-titre virus supernatants were prepared by amplifying 3 times. PDEs were expressed in SF21 cells by infecting 2×10^6 cells/ml with an MOI (multiplicity of infection) between 1 and 10 in serum-free SF900 medium (Life Technologies, Paisley, UK). The cells were cultured at 28° C. for 48-72 hours, after which they were pelleted for 5-10 min at 1000 g and 4° C.
(§2) The SF21 insect cells were resuspended, at a concentration of approx. 10^7 cells/ml, in ice-cold (4° C.) homogenization buffer (20 mM Tris, pH 8.2, containing the following additions: 140 mM NaCl, 3.8 mM KCl, 1 mM EGTA, 1 mM MgCl2, 10 mM β-mercaptoethanol, 2 mM benzamidine, 0.4 mM Pefablock, 10 μM leupeptin, 10 μM pepstatin A, 5 μM trypsin inhibitor) and disrupted by ultrasonication. The homogenate was then centrifuged for 10 min at 1000×g and the supernatant was stored at −80° C. until subsequent use (see below). The protein content was determined by the Bradford method (BioRad, Munich) using BSA as the standard.
PDE3A1 and PDE4B2 activities were inhibited by the said compounds in a modified SPA (scintillation proximity assay) test, supplied by Amersham Biosciences (see procedural instructions “phosphodiesterase [3H]cAMP SPA enzyme assay, code TRKQ 7090”), carried out in 96-well microtitre plates (MTP's). The test volume is 100 μl and contains 20 mM Tris buffer (pH 7.4), 0.1 mg of BSA (bovine serum albumin)/ml, 5 mM Mg^2+, 0.5 μM cAMP (including about 50,000 cpm of [3H]cAMP), 1 μl of the respective substance dilution in DMSO and sufficient recombinant PDE (1000×g supernatant, see above) to ensure that 10-20% of the cAMP is converted under the said experimental conditions. […] After a preincubation of 5 min at 37° C., the reaction is started by adding the substrate (cAMP) and the assays are incubated for a further 15 min; after that, they are stopped by adding SPA beads (50 μl). In accordance with the manufacturer's instructions, the SPA beads had previously been resuspended in water, but were then diluted 1:3 (v/v) in water; the diluted solution also contains 3 mM IBMX to ensure a complete PDE activity stop. After the beads have been sedimented (>30 min), the MTP's are analyzed in commercially available luminescence detection devices. The corresponding IC50 values of the compounds for the inhibition of PDE activities are determined from the concentration-effect curves by means of non-linear regression.
(§3) The inhibitory values of the compounds 1-16 and 22-24 have been determined according to Method A. The inhibitory values of the compounds 17-21 have been determined according to Method B.

PDE3A1 = target: T2, PDE3A1 (Homo sapiens, UniProt Q14432); experiment: PDE3A1 inhibition, Method B (modified SPA test, recombinant enzyme); settings: 0.5 μM cAMP, read-out: PDE3 [−log IC50, mol/l] (converted)
T2 construct: The whole ORF was subcloned into pBacPak9 (Clontech, Palo Alto) using EcoRI; made in house; host or cells: baculovirus (pBacPak9), SF21 insect cells (virus made in SF9); 1000xg supernatant of the homogenate
T2 sequence (Q14432 whole entry): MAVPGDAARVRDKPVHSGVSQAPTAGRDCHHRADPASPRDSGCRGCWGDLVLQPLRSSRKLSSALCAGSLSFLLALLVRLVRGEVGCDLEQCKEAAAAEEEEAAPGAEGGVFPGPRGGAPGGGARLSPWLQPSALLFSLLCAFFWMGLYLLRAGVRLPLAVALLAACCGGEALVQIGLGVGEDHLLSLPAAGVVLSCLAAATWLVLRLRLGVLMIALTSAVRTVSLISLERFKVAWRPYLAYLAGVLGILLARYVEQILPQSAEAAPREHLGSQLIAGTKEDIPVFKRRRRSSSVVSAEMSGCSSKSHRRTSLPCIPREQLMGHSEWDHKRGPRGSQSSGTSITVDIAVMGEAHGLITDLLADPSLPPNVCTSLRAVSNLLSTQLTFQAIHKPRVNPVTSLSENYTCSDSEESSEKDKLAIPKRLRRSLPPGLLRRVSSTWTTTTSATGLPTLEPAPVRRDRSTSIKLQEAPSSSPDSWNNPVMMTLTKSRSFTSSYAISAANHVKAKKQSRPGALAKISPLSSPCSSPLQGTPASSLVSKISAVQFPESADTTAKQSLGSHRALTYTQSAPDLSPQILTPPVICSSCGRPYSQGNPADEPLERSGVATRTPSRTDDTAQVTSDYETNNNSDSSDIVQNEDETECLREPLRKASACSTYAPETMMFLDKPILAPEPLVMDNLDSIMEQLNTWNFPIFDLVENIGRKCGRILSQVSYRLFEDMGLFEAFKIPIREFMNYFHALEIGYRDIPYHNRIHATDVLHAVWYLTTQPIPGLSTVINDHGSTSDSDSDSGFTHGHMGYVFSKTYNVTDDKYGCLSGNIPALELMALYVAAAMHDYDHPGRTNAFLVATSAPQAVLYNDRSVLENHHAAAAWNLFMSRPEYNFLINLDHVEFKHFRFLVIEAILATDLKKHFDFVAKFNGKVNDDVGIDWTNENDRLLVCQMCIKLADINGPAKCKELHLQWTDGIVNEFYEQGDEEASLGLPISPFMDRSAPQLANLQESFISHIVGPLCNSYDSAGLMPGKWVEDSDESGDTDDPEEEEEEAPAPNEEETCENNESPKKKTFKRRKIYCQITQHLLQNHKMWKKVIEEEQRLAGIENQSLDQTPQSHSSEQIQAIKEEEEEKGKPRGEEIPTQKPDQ
From the text: The cDNA for PDE3A1 (GB no. U36798) was isolated in 2 steps using PCR. A 3′ terminal cDNA fragment of PDE3A1 was amplified from fat cells cDNA (Clontech, Palo Alto) using primers OZ 458 (5′-[…]-3′) and OZ 457 (5′-[…]-3′). The 5′ terminal cDNA fragment of PDE3A1 was amplified from Placenta cDNA (Clontech, Palo Alto) using primers OZ 455 (5′-[…]-3′) and OZ 456 (5′-[…]-3′). The PCR products were cloned into pCR2.1-Topo (Invitrogen, Groningen, NL) under standard conditions (the manufacturer's instructions). The 3′ fragment was cut out with HindII and cloned into the HindII site of the construct carrying the 5′ fragment. The whole ORF was subcloned into pBacPak9 (Clontech, Palo Alto) using EcoRI. Aminoacid 12 is Aspartic Acid like in sequence GB no. AJ005036, aa 69 and aa 110 are respective Serine and Glycine like in both sequences GB no. AJ005036 and GB no. M91667.
as §1, §2
PDE3A1 and PDE4B2 activities were inhibited by the said compounds in a modified SPA (scintillation proximity assay) test, supplied by Amersham Biosciences (see procedural instructions “phosphodiesterase [3H]cAMP SPA enzyme assay, code TRKQ 7090”), carried out in 96-well microtitre plates (MTP's). The test volume is 100 μl and contains 20 mM Tris buffer (pH 7.4), 0.1 mg of BSA (bovine serum albumin)/ml, 5 mM Mg^2+, 0.5 μM cAMP (including about 50,000 cpm of [3H]cAMP), 1 μl of the respective substance dilution in DMSO and sufficient recombinant PDE (1000×g supernatant, see above) to ensure that 10-20% of the cAMP is converted under the said experimental conditions. […] After the beads have been sedimented (>30 min), the MTP's are analyzed in commercially available luminescence detection devices. The corresponding IC50 values of the compounds for the inhibition of PDE activities are determined from the concentration-effect curves by means of non-linear regression.
as §3

[1] = tested on: PDE4 (cAMP-specific) in the cytosol of human polymorphonuclear leukocytes (PMNL); experiment: PDE4 inhibition, Method A (radioactive PDE assay after Thompson et al.); settings: cAMP substrate, motapizone 1 μM
Experimental: (§4) The PDE activity was determined according to Thompson et al. (Adv Cycl Nucl Res 10: 69-92, 1979) with some modifications (Bauer and Schwabe, Naunyn-Schmiedeberg's Arch Pharmacol 311: 193-198, 1980). The test samples contained 20 mM Tris (pH 7.4), 5 mM MgCl2, 0.5 μM CAMP or cGMP, [^3H]cAMP or [^3H]cGMP (about 30 000 cpm/sample), the PDE isoenzyme-specific additives described in greater detail below, the indicated concentrations of inhibitor and an aliquot of the enzyme solution in a total sample volume of 200 μl. Dilution series of the compounds according to the invention were prepared in DMSO and further diluted in the samples [1:100 (v/v)], to give the desired end concentration of the inhibitors at a DMSO concentration of 1% (v/v), which for its part has only a minute effect on PDE activity.
(§5) After preincubation at 37° C. for 5 minutes, the reaction was started by addition of the substrate (CAMP or cGMP). The samples were incubated at 37° C. for a further 15 min. The reaction was terminated by addition of 50 μl 0.2 N HCl. After cooling on ice for 10 minutes and addition of 25 μg 5′-nucleotidase (snake venom from Crotalus atrox), the mixture was again incubated at 37° C. for 10 min and the samples were then applied to QAE Sephadex A-25 columns (sample volume 1 ml). The columns were eluted with 2 ml of 30 mM ammonium formate (pH 6.0). The radioactivity of the eluate was measured and corrected by the corresponding blank values (measured in the presence of denatured protein); the blank values were less than 5% of the total radioactivity. In no case did the proportion of hydrolyzed nucleotide exceed 30% of the original substrate concentration.
PDE4 (cAMP-specific) was investigated in the cytosol of human polymorphonuclear leukocytes (PMNL) [isolated from leukocyte concentrates, see Schudt et al., Arch Pharmacol 1991: 344, 682-690] using cAMP as substrate. The PDE3 inhibitor motapizone (1 μM) was used to suppress the PDE3 activity emanating from contaminated platelets.
(§6) The IC50 values were determined from the concentration-inhibition curves by nonlinear regression.
as §3

[2] = target: T3, PDE3 (cGMP-inhibited) in homogenates of human platelets (Homo sapiens, UniProt Q14432); experiment: PDE3 inhibition, Method A (radioactive PDE assay after Thompson et al.); settings: read-out: PDE3 [−log IC50, mol/l] (converted)
T3 construct: investigated in homogenates of human platelets; from tissue; host or cells: homogenates of human platelets
T3 sequence (Q14432 whole entry): as above
Experimental: as §4, §5
PDE3 (cGMP-inhibited) was investigated in homogenates of human platelets (see Schudt et al., Biochem Pharmacol 1991: 42, 153-162) using CAMP or cGMP as substrate.
as §6, §3

| Structure (SMILES) | IC50 (PDE4B2) | IC50 (PDE3A1) | PDE4 [−log IC50, mol/l] [1] | IC50 [2] |
| --- | --- | --- | --- | --- |
| CCOc1cc2c(cc1OC)C(c1ccc(C(=O)N(C(C)C)[C@@H](C)COCc3ccc(C(F)(F)F)cc3)cc1)=N[C@@H]1CCN(C)C[C@H]21 [Compound 18, 4-((4aR,10bS)-9-Ethoxy-8-methoxy-2-methyl-1,2,3,4,4a,10b-hexahydro-benzo [c][1,6]naphthyridin-6-yl)-N-isopropyl-N—[(S)-1-methyl-2-(4-trifluoromethyl-benzyloxy)-ethyl]-benzamide] | 1 nM | 79.4 nM | – | – |
| CCOc1cc2c(cc1OC)C(c1ccc(C(=O)N(C(C)C)[C@@H](C)COCCCc3ccccc3)cc1)=N[C@@H]1CCN(C)C[C@H]21 [Compound 21, 4-((4aR,10bS)-9-Ethoxy-8-methoxy-2-methyl-1,2,3,4,4a,10b-hexahydro-benzo [c][1,6]naphthyridin-6-yl)-N-isopropyl-N—[(S)-1-methyl-2-(3-phenyl-propoxy)-ethyl]-benzamide] | 2 nM | 39.8 nM | – | – |
| CCOc1cc2c(cc1OC)C(c1ccc(C(=O)N(C(C)C)[C@@H](C)COCc3ccc(C#N)cc3)cc1)=N[C@@H]1CCN(C)C[C@H]21 [Compound 19, N—[(S)-2-(4-Cyano-benzyloxy)-1-methyl-ethyl]-4-((4aR,10bS)-9-ethoxy-8-methoxy-2-methyl-1,2,3,4,4a,10b-hexahydro-benzo[c][1,6]naphthyridin-6-yl)-N-isopropyl-benzamide] | 0.398 nM | 25.1 nM | – | – |

Other lines, results leading:

| IC50 (PDE4B2) | IC50 (PDE3A1) | PDE4 [−log IC50, mol/l] [1] | IC50 [2] | Structure (SMILES) |
| --- | --- | --- | --- | --- |
| 0.316 nM | 39.8 nM | – | – | CCOc1cc2c(cc1OC)C(c1ccc(C(=O)N(C(C)C)[C@@H](C)COCc3cc(OC)cc(OC)c3)cc1)=N[C@@H]1CCN(C)C[C@H]21 [Compound 17, N—[(S)-2-(3,5-Dimethoxy-benzyloxy)-1-methyl-ethyl]-4-((4aR,10bS)-9-ethoxy-8-methoxy-2-methyl-1,2,3,4,4a,10b-hexahydro-benzo[c][1,6]naphthyridin-6-yl)-N-isopropyl-benzamide] |
| 0.316 nM | 39.8 nM | – | – | CCOc1cc2c(cc1OC)C(c1ccc(C(=O)N(C(C)C)[C@@H](C)COCc3ccc(OC)cc3)cc1)=N[C@@H]1CCN(C)C[C@H]21 [Compound 20, 4-((4aR,10bS)-9-Ethoxy-8-methoxy-2-methyl-1,2,3,4,4a,10b-hexahydro-benzo [c][1,6]naphthyridin-6-yl)-N-isopropyl-N—[(S)-2-(4-methoxy-benzyloxy)-1-methyl-ethyl]-benzamide] |
| – | – | 9.0 mol/l | 79.4 nM | CCOc1cc2c(cc1OC)C(c1ccc(C(=O)N(C(C)C)[C@@H](C)COC)cc1)=N[C@@H]1CCN(C)C[C@H]21.Cl [Compound 11, 4-((4aR,10bS)-9-Ethoxy-8-methoxy-2-methyl-1,2,3,4,4a,10b-hexahydro-benzo [c][1,6]naphthyridin-6-yl)-N-isopropyl-N-((S)-2-methoxy-1-methyl-ethyl)-benzamide; hydrochloride] |
